Experimental data published in ChEMBL document CHEMBL1134067, “Modeling of the binding mode of a non-covalent inhibitor of the 20S proteasome. Application to structure-based analogue design” (Bioorg Med Chem Lett, 2001).

Species on record: Homo sapiens
Assay: In vitro inhibitory concentration against Chymotrypsin-like catalytic activity of the human 20S Proteasome
Assay type: functional

## COc1ccc(CN[C@@H](C(=O)N[C@H](C(=O)NCc2ccc(OC)cc2OC)C(C)C)[C@H](O)[C@H](Cc2ccccc2)NC(=O)[C@@H](NC(=O)OCc2ccccc2)C(C)C)cc1
  IC50: > 20 µM
